{"source": "patent US6355799B1", "about": "“Substituted benzene compounds, process for their preparation, and herbicidal and defoliant compositions containing them” (ISK Americas Incorporated, priority 1997, dated 2002)", "format_in_all_cases": "in vivo", "key": {"[1]": {"tested_on": "redroot pigweed (Amaranthus retroflexus, AMARE)", "test": "Pre-emerge test, greenhouse herbicide activity screening", "settings": "rating scale 0-100, 14 days after application", "in_short": "(§1)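 Compounds in acetone were track-sprayed at 187 l/ha, 15–1000 g ai/ha, onto sandy loam pots. Pre-emerge seeds were sown one day before spraying, with surface watering afterwards. Post-emerge plants were at the 2–3 leaf stage and sprayed with 0.25% v/v non-ionic surfactant. Injury was rated 0–100 at 14 days.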"}, "[2]": {"tested_on": "upland rice (Oryza sp., var. Tebonnet, RICE)", "test": "Post-emerge test, crop safety", "settings": "rating scale 0-100 (0 no damage, 100 complete death), 14 days after application", "in_short": "(§2)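 Sandy loam pots; pre-emerge: sown 1 d pre-spray, surface-watered after, then bottom-watered. Post-emerge: sown 8–21 d before, 2–3 leaf stage, + 0.25% v/v NIS, bottom-watered. Acetone, 187 l/ha track spray, 15–1000 g ai/ha. 0–100 injury score, day 14.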"}, "[3]": {"tested_on": "field corn (Zea mays L., var. Dekalb 535, CORN)", "test": "Post-emerge test, crop safety", "settings": "rating scale 0-100 (0 no damage, 100 complete death), 14 days after application", "in_short": "as §2"}, "[4]": {"tested_on": "johnsongrass (Sorghum halepense, SORHA)", "test": "Pre-emerge test, greenhouse herbicide activity screening", "settings": "rating scale 0-100, 14 days after application", "in_short": "as §2"}, "[5]": {"tested_on": "velvetleaf (Abutilon theophrasti, ABUTH)", "test": "Pre-emerge test, greenhouse herbicide activity screening", "settings": "rating scale 0-100, 14 days after application", "in_short": "as §2"}, "[6]": {"tested_on": "lambsquarters (Chenopodium album, CHEAL)", "test": "Pre-emerge test, greenhouse herbicide activity screening", "settings": "rating scale 0-100, 14 days after application", "in_short": "as §2"}, "[7]": {"tested_on": "barnyardgrass (Echinochloa crus-galli, ECHCG)", "test": "Pre-emerge test, greenhouse herbicide activity screening", "settings": "rating scale 0-100, 14 days after application", "in_short": "as §2"}, "[8]": {"tested_on": "large crabgrass (Digitaria sanguinalis, DIGSA)", "test": "Pre-emerge test, greenhouse herbicide activity screening", "settings": "rating scale 0-100, 14 days after application", "in_short": "as §2"}, "[9]": {"tested_on": "green foxtail (Setaria viridis, SETVI)", "test": "Pre-emerge test, greenhouse herbicide activity screening", "settings": "rating scale 0-100, 14 days after application", "in_short": "as §2"}, "[10]": {"tested_on": "sicklepod (Cassia obtusifolia, CASOB)", "test": "Pre-emerge test, greenhouse herbicide activity screening", "settings": "rating scale 0-100, 14 days after application", "in_short": "as §2"}, "[11]": {"tested_on": "ivyleaf morningglory (Ipomoea hederacea, IPOHE)", "test": "Pre-emerge test, greenhouse herbicide activity screening", "settings": "rating scale 0-100, 14 days after application", "in_short": "as §2"}, "[12]": {"tested_on": "upland rice (Oryza sp., var. Tebonnet, RICE)", "test": "Pre-emerge test, crop safety", "settings": "rating scale 0-100, 14 days after application", "in_short": "(§3)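 Rating: 0–100 visual injury, 14 DAA. Application: acetone, 187 l/ha, 15–1000 g ai/ha, flat-fan track sprayer with nozzle 40–45 cm above soil or canopy. Post-emerge runs used 0.25% v/v surfactant on 2–3 leaf plants.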"}, "[13]": {"tested_on": "field corn (Zea mays L., var. Dekalb 535, CORN)", "test": "Pre-emerge test, crop safety", "settings": "rating scale 0-100, 14 days after application", "in_short": "as §3"}, "[14]": {"tested_on": "johnsongrass (Sorghum halepense, SORHA)", "test": "Post-emerge test, greenhouse herbicide activity screening", "settings": "rating scale 0-100 (0 no damage, 100 complete death), 14 days after application", "in_short": "as §1"}, "[15]": {"tested_on": "velvetleaf (Abutilon theophrasti, ABUTH)", "test": "Post-emerge test, greenhouse herbicide activity screening", "settings": "rating scale 0-100 (0 no damage, 100 complete death), 14 days after application", "in_short": "as §1"}, "[16]": {"tested_on": "lambsquarters (Chenopodium album, CHEAL)", "test": "Post-emerge test, greenhouse herbicide activity screening", "settings": "rating scale 0-100 (0 no damage, 100 complete death), 14 days after application", "in_short": "as §1"}, "[17]": {"tested_on": "redroot pigweed (Amaranthus retroflexus, AMARE)", "test": "Post-emerge test, greenhouse herbicide activity screening", "settings": "rating scale 0-100 (0 no damage, 100 complete death), 14 days after application", "in_short": "as §1"}, "[18]": {"tested_on": "barnyardgrass (Echinochloa crus-galli, ECHCG)", "test": "Post-emerge test, greenhouse herbicide activity screening", "settings": "rating scale 0-100 (0 no damage, 100 complete death), 14 days after application", "in_short": "as §1"}, "[19]": {"tested_on": "large crabgrass (Digitaria sanguinalis, DIGSA)", "test": "Post-emerge test, greenhouse herbicide activity screening", "settings": "rating scale 0-100 (0 no damage, 100 complete death), 14 days after application", "in_short": "as §1"}, "[20]": {"tested_on": "green foxtail (Setaria viridis, SETVI)", "test": "Post-emerge test, greenhouse herbicide activity screening", "settings": "rating scale 0-100 (0 no damage, 100 complete death), 14 days after application", "in_short": "as §1"}, "[21]": {"tested_on": "sicklepod (Cassia obtusifolia, CASOB)", "test": "Post-emerge test, greenhouse herbicide activity screening", "settings": "rating scale 0-100 (0 no damage, 100 complete death), 14 days after application", "in_short": "as §1"}, "[22]": {"tested_on": "ivyleaf morningglory (Ipomoea hederacea, IPOHE)", "test": "Post-emerge test, greenhouse herbicide activity screening", "settings": "rating scale 0-100 (0 no damage, 100 complete death), 14 days after application", "in_short": "as §1"}}, "data": [{"smiles": "COc1c(Cl)cc(F)c(-n2c(=O)cc(C(F)(F)F)n(C)c2=O)c1CC(Cl)C(=O)OCCOc1ccccc1", "note": "(single isomer, unassigned) [14-28]", "values": [{"measurement": "Pre-emerge herbicidal activity, phytotoxicity rating AMARE", "setting": "[1]; 63 g ai/ha", "value": 90}, {"measurement": "Pre-emerge herbicidal activity, phytotoxicity rating AMARE", "setting": "[1]; 250 g ai/ha", "value": 100}, {"measurement": "Post-emerge phytotoxicity rating RICE (crop damage)", "setting": "[2]; Rate 63 g ai/ha", "value": 0}, {"measurement": "Post-emerge phytotoxicity rating RICE (crop damage)", "setting": "[2]; Rate 250 g ai/ha", "value": 40}, {"measurement": "Post-emerge phytotoxicity rating CORN (crop damage)", "setting": "[3]; Rate 63 g ai/ha", "value": 10}, {"measurement": "Post-emerge phytotoxicity rating CORN (crop damage)", "setting": "[3]; Rate 250 g ai/ha", "value": 70}, {"measurement": "Pre-emerge herbicidal activity, phytotoxicity rating SORHA", "setting": "[4]; 63 g ai/ha", "value": 0}, {"measurement": "Pre-emerge herbicidal activity, phytotoxicity rating SORHA", "setting": "[4]; 250 g ai/ha", "value": 40}, {"measurement": "Pre-emerge herbicidal activity, phytotoxicity rating ABUTH", "setting": "[5]; 63 g ai/ha", "value": 0}, {"measurement": "Pre-emerge herbicidal activity, phytotoxicity rating ABUTH", "setting": "[5]; 250 g ai/ha", "value": 80}, {"measurement": "Pre-emerge herbicidal activity, phytotoxicity rating CHEAL", "setting": "[6]; 63 g ai/ha", "value": 0}, {"measurement": "Pre-emerge herbicidal activity, phytotoxicity rating CHEAL", "setting": "[6]; 250 g ai/ha", "value": 95}, {"measurement": "Pre-emerge herbicidal activity, phytotoxicity rating ECHCG", "setting": "[7]; 63 g ai/ha", "value": 0}, {"measurement": "Pre-emerge herbicidal activity, phytotoxicity rating ECHCG", "setting": "[7]; 250 g ai/ha", "value": 20}, {"measurement": "Pre-emerge herbicidal activity, phytotoxicity rating DIGSA", "setting": "[8]; 63 g ai/ha", "value": 0}, {"measurement": "Pre-emerge herbicidal activity, phytotoxicity rating DIGSA", "setting": "[8]; 250 g ai/ha", "value": 100}, {"measurement": "Pre-emerge herbicidal activity, phytotoxicity rating SETVI", "setting": "[9]; 63 g ai/ha", "value": 0}, {"measurement": "Pre-emerge herbicidal activity, phytotoxicity rating SETVI", "setting": "[9]; 250 g ai/ha", "value": 0}, {"measurement": "Pre-emerge herbicidal activity, phytotoxicity rating CASOB", "setting": "[10]; 63 g ai/ha", "value": 0}, {"measurement": "Pre-emerge herbicidal activity, phytotoxicity rating CASOB", "setting": "[10]; 250 g ai/ha", "value": 0}, {"measurement": "Pre-emerge herbicidal activity, phytotoxicity rating IPOHE", "setting": "[11]; 63 g ai/ha", "value": 0}, {"measurement": "Pre-emerge herbicidal activity, phytotoxicity rating IPOHE", "setting": "[11]; 250 g ai/ha", "value": 0}, {"measurement": "Pre-emerge phytotoxicity rating, crop damage RICE", "setting": "[12]; 63 g ai/ha", "value": 0}, {"measurement": "Pre-emerge phytotoxicity rating, crop damage RICE", "setting": "[12]; 250 g ai/ha", "value": 0}, {"measurement": "Pre-emerge phytotoxicity rating, crop damage CORN", "setting": "[13]; 63 g ai/ha", "value": 0}, {"measurement": "Pre-emerge phytotoxicity rating, crop damage CORN", "setting": "[13]; 250 g ai/ha", "value": 20}, {"measurement": "Post-emerge Herbicidal Activity, phytotoxicity rating SORHA", "setting": "[14]; Rate 63 g ai/ha", "value": 0}, {"measurement": "Post-emerge Herbicidal Activity, phytotoxicity rating SORHA", "setting": "[14]; Rate 250 g ai/ha", "value": 50}, {"measurement": "Post-emerge Herbicidal Activity, phytotoxicity rating ABUTH", "setting": "[15]; Rate 63 g ai/ha", "value": 100}, {"measurement": "Post-emerge Herbicidal Activity, phytotoxicity rating ABUTH", "setting": "[15]; Rate 250 g ai/ha", "value": 100}, {"measurement": "Post-emerge Herbicidal Activity, phytotoxicity rating CHEAL", "setting": "[16]; Rate 63 g ai/ha", "value": 95}, {"measurement": "Post-emerge Herbicidal Activity, phytotoxicity rating CHEAL", "setting": "[16]; Rate 250 g ai/ha", "value": 100}, {"measurement": "Post-emerge Herbicidal Activity, phytotoxicity rating AMARE", "setting": "[17]; Rate 63 g ai/ha", "value": 90}, {"measurement": "Post-emerge Herbicidal Activity, phytotoxicity rating AMARE", "setting": "[17]; Rate 250 g ai/ha", "value": 100}, {"measurement": "Post-emerge Herbicidal Activity, phytotoxicity rating ECHCG", "setting": "[18]; Rate 63 g ai/ha", "value": 100}, {"measurement": "Post-emerge Herbicidal Activity, phytotoxicity rating ECHCG", "setting": "[18]; Rate 250 g ai/ha", "value": 100}, {"measurement": "Post-emerge Herbicidal Activity, phytotoxicity rating DIGSA", "setting": "[19]; Rate 63 g ai/ha", "value": 20}, {"measurement": "Post-emerge Herbicidal Activity, phytotoxicity rating DIGSA", "setting": "[19]; Rate 250 g ai/ha", "value": 50}, {"measurement": "Post-emerge Herbicidal Activity, phytotoxicity rating SETVI", "setting": "[20]; Rate 63 g ai/ha", "value": 0}, {"measurement": "Post-emerge Herbicidal Activity, phytotoxicity rating SETVI", "setting": "[20]; Rate 250 g ai/ha", "value": 30}, {"measurement": "Post-emerge Herbicidal Activity, phytotoxicity rating CASOB", "setting": "[21]; Rate 63 g ai/ha", "value": 30}, {"measurement": "Post-emerge Herbicidal Activity, phytotoxicity rating CASOB", "setting": "[21]; Rate 250 g ai/ha", "value": 30}, {"measurement": "Post-emerge Herbicidal Activity, phytotoxicity rating IPOHE", "setting": "[22]; Rate 63 g ai/ha", "value": 50}, {"measurement": "Post-emerge Herbicidal Activity, phytotoxicity rating IPOHE", "setting": "[22]; Rate 250 g ai/ha", "value": 70}]}]}
